Source: patent publication US20120082623A1, “SHH Regulation and Methods Thereof” (priority 2009, published 2012)
“Also recorded” adds a separate entry of the source.

Legend:
[1] = test system: Th expressing dopaminergic neurons in the substantia nigra pars compacta; assay: MPTP paradigm with and without cyclopamine; stereological quantification of Th+ cells
[2] = test system: SVZ proliferation; design: reduction in SVZ proliferation overall (PCNA) / reduction in proliferation in the C cell compartment (PCNA): concentration or dose not given beside the values; conditions: cited from earlier work; for reduction in SVZ proliferation overall (PCNA) / reduction in proliferation in the C cell compartment (PCNA): systemic MPTP or unilateral 6-OHDA into the nigro-striatal pathway
[3] = test system: Shh-nLZ C/C; Dat-Cre mutant mice; assay: Kinematic analysis of spontaneous locomotion (open field) after L-Dopa or THP; assay type: in vivo, mouse; conditions: phase III mutant animals
Method: In particular, Bradykinesia is observed in PD. Bradykinesia is the slowed ability to start and continue movements, and impaired ability to adjust the body's position. […] There were no significant differences in the maximal speed that control and mutant mice can travel at (FIG. 40E). The relative time each animals spends at different speeds during acceleration and deceleration in individual locomotion bouts was analyzed. The numbers of “surges”, that are the reversals from acceleration to deceleration and back within a single locomotion bout, were quantitated. The “speed bin” analysis and quantitation of surges type is schematized in FIG. 40F.
Mesostriatal computations take part in the sequencing of locomotor activity and in the termination of ongoing actions (Jin and Costa, 2010; Ding et al., 2010). These processes can be partially assessed by analysis of the kinematic complexity of individual bouts of locomotion in freely ambulating mice (Benjamini et al. 2011; see also Other Results and Discussion). Quantifying the number of alternations from acceleration to deceleration and back in individual bouts of locomotion of similar duration and overall amplitude (FIG. 63G; see also Other Results and Discussion), a 100% increase in locomotive complexity of Shh-nLZ^C/C; Dat-Cre mutants in phase II but a 40% decrease in complexity in phase III compared to control littermates was observed (FIG. 48F). How much time animals spend traveling at different velocities during individual bouts of locomotion of similar length and amplitude was quantified next (see Other Results and Discussion). In phase II mice spend most time locomoting at initial and at top speeds with no discernable differences between Shh-nLZ; Dat-Cre mutants and control littermates (FIG. 64A-B). In phase III, however, Shh-nLZ^C/C; Dat-Cre animals spend 50% more time at low velocities and 80% less time at submaximal speed levels before reaching maximal velocity (FIG. 48K and FIG. 64C). Shh-nLZ^C/C; Dat-Cre animals also spend more time at sub-maximal speed levels after the animal reached peak velocities in a given bout compared to controls (FIG. 64D). […]
Spontaneous motor activity was measured in an open field arena using automatic tracking at 6 Hz by an EthoVision 3.1 system (Noldus Information Technology, Leesburg, Va.). […]
The open field arena was a polycarbonate cage 30×60×25 cm placed in a sound proof chamber. Locomotion of each mouse was recorded and tracked automatically for 10 minutes after habituation. Motor activity was measured as total distance traveled and turning bias was calculated as the net turning angle divided by distance (degrees/cm). Turning bias was calculated by subtracting the sum of ipsi- to contra-lateral movements and is independent of displacement (Spink et al., 2001).

[4] = test system: Shh-nLZ C/C; Dat-Cre mutant mice; assay: Gait dynamics on treadmill (DigiGait) after acute L-Dopa or THP in mice with Shh ablation from DA neurons; assay type: in vivo, mouse; conditions: for increased absolute paw angle / reduced brake time / Brake-Stride ratio: 12 month old mutant animals; for reduced brake time / Brake-Stride ratio: THP 3 mg/kg IP, 30 minutes prior
From the text: Given the involvement of the basal ganglia in the production of gait patterns, gait dynamics by ventral plane videography of mice walking on a translucent treadmill was investigated (Digigait system, Mouse specifics, Inc.), from which comparative temporal, spatial and force indices of gait were derived (Hampton et al., Physiol Behav. 2004 Sep. 15; 82(2-3):381-9; Amende et al., J Neuroeng Rehabil. 2005 Jul. 25; 2:20) of experimental and control animals from 3 to 16 months.
Either drug or vehicle control 30 minutes prior to the analysis of gait dynamics was injected in 12 month old animals. […] (FIG. 39D). […] (FIG. 39B). […] (FIG. 40C).
Gait dynamics by ventral plane videography of mice walking on a translucent treadmill (Digigait system, Mouse specifics, Inc.) were investigated, from which comparative temporal, spatial and force indices of gait were derived (Hampton et al., 2010) of Shh-nLZ^C/C; Dat-Cre—and control animals from 3 to 16 months of age (Table 1). Since altered posture can confound comparative gait analysis based on absolute measures, further analysis of locomotion on the tread mill was focused on gait length variability and relative indices of gait dynamics (relative time allotted to Swing, Brake, Propel and Stance phases) and foot angle. In Shh-nLZ^C/C; Dat-Cre mutants, gait length coefficient of variability was 30% increased at 10 months of age (FIG. 48C).
Many of the locomotion disturbances observed in Shh-nLZ^C/C; Dat-Cre were reminiscent of the functional hall marks of Parkinson's spectrum diseases which are characterized by a general impoverishment of locomotion, reduced fluidity of movement, difficulties in initiating and terminating locomotion, and increased stride length variability (Hausdorff et. al, 1998). Whether dopamine substitution by L-Dopa and the muscarinic antagonist trihexiphenidyl (THP), drugs of proven efficacy in the management of symptoms of PD related diseases, will modify acutely the locomotion deficits of Shh-nLZ^C/C; Dat-Cre mice, was tested.
Spontaneous motor activity was measured in an open field arena using automatic tracking at 6 Hz by an EthoVision 3.1 system (Noldus Information Technology, Leesburg, Va.). Derivation of acceleration and deceleration profiles and indices for turning bias and locomotion complexity is described below. Analysis of gait parameters by forced locomotion was performed by ventral plane videography on a translucent tread mill as described (Digigait, Inc.; Hampton et al., 2010).

[5] = test system: Shh pathway; assay: Cyclopamine injection into soleus/calf muscle; GDNF and CNTF expression by qtPCR; assay type: in vivo, mouse; conditions: for dose dependence of neurotrophic factor up-regulation: soleus of endstage G93A SOD animals, 0.5, 1, or 2 μg
[6] = test system: medial forebrain bundle (mFB); assay: Unilateral 6-OHDA injection into the medial forebrain bundle; turning bias and gene expression; assay type: in vivo, mouse; conditions: for Shh transcription in the vMB: wt and heterozygous GDNF mutant mice
[7] = test system: MPTP-lesioned mice; conditions: oral administration; cited from earlier work
[8] = unilateral injection into the soleus of 125 day old G93A SOD transgenic animals
[9] = single systemic dose 1 hour prior to brain harvest
[10] = unilateral striatal deafferentation (Winner et al. 2006)

In the case of CN1CC=C(c2ccccc2)CC1 [MPTP, 1-methyl-4-phenyl-1,2,3,6-tetrahydropyridine], the “reduction in the numbers of Th+ cells compared to vehicle controls” value ([1]; MPTP 30 mg/kg/day for 4 days, day 33, n=5) is listed as 39%, the “reduction in SVZ proliferation overall (PCNA)” value [2] is listed as 40% and the “reduction in proliferation in the C cell compartment (PCNA)” value [2] is listed as 50%.
With N[C@@H](Cc1ccc(O)c(O)c1)C(=O)O [L-Dopa, Levodopa] the “deficits in the initiation of acceleration and deceleration (time at low speeds)” value [3] was “partially normalized; also recorded: normalize the deficit during locomotion initiation; also recorded: ameliorated the deficits in the initiation of acceleration and deceleration; also recorded: ameliorate the deficits at low speeds”, the “time spent locomoting at high / sub-maximal speeds” value [3] was “Neither drug effected the time spend locomoting at sub-maximal speeds; also recorded: not those observed at higher speeds; also recorded: neither drug normalized the time; also recorded: do not normalize the differences at high locomotion speeds” and the “increased absolute paw angle” value [4] was “normalized the alterations in paw angles”. For the same molecule, the “reduced brake time / Brake-Stride ratio” value ([4]; L-Dopa 20 mg/kg SC) was “did not correct the reduction in brake time”, the “reduced brake time / Brake-Stride ratio” value ([4]; L-Dopa 20 mg/kg SC, listed as L-DOPA) was “not L-DOPA” and the “increased absolute paw angle” value ([4]; listed as L-DOPA) was “normalized by L-DOPA”. For the same molecule, the Brake-Stride ratios ([4]; experimental and control animals, L-Dopa 20 mg/kg SC) was “reduced Brake-Stride ratios in both experimental and control animals”.
In the case of CC1=C2C[C@H]3[C@@H](CC=C4C[C@@H](O)CC[C@@]43C)[C@@H]2CC[C@]12O[C@@H]1C[C@H](C)CN[C@H]1[C@H]2C [cyclopamine], the “reduction in Th+ cells in the ventral midbrain compared to control animals” value ([1]; MPTP plus cyclopamine 50 mg/kg/day by osmotic micropump, n=1) is reported as 21%, the “effect on MPTP induced neurodegeneration” value ([1]; MPTP plus cyclopamine 50 mg/kg/day, n=1) is reported as “statistically significant reduction in neurodegeneration” and the “up regulation of GDNF expression in the muscle” value ([5]; injection into calf muscles of control animals) is reported as 20 fold. The “effect on GDNF expression in adult muscles” value ([5]; injection into limb muscle of wild type (wt) and G93A SOD1 mice) was “up regulation of GDNF expression”, the “up-regulation of CNTF” value ([5]; injection into the calf muscles of end stage G93A SOD mice) was 20 fold and the “maximal up regulation of GDNF, fold change in gene expression over control side” value ([5]; right soleus of 125 day old G93A SOD transgenic animals, 1 mg of Cyclopamine, 30 h post injection) was 27 fold. The “maximal upregulation of CNTF, fold change in gene expression over control side” value ([5]; right soleus of 125 day old G93A SOD transgenic animals, 2 mg of cyclopamine, 30 h post injection) was 20 fold, the “dose dependence of neurotrophic factor up-regulation” value [5] was “dose dependent up-regulation of neurotrophic factor expression” and the “dose dependence of neurotrophic factor up-regulation” value ([5]; listed as Cyclopamine) was “dose dependent up-regulation of GDNF and CNTF”. The “increase in CNTF expression over the saline injected contra lateral control soleus” value [5, 8] was 8 fold and the “increase in GDNF expression over the saline injected contra lateral control soleus” value [5, 8] was 12 fold.
In the case of CCCN(CCC)CCc1cccc2c1CC(=O)N2 [Ropinirole], the “mitotic activity of the SVZ (PCNA+ cells) on the lesioned side” value [2, 9] is listed as “restores the mitotic activity of the SVZ” and the “proliferative index on the unlesioned side” value [2, 9] is listed as “increases the proliferative index on the unlesioned side”.
With OC(CCN1CCCCC1)(c1ccccc1)C1CCCCC1 (stereo not drawn) [THP, Trihexyphenidyl] the “deficits in the initiation of acceleration and deceleration (time at low speeds)” value [3] was “partially normalized; also recorded: normalize the deficit during locomotion initiation; also recorded: ameliorated the deficits in the initiation of acceleration and deceleration; also recorded: ameliorate the deficits at low speeds”, the “time spent locomoting at high / sub-maximal speeds” value [3] was “Neither drug effected the time spend locomoting at sub-maximal speeds; also recorded: not those observed at higher speeds; also recorded: neither drug normalized the time; also recorded: do not normalize the differences at high locomotion speeds” and the “increased absolute paw angle” value [4] was “not by THP”. For the same molecule, the “reduced brake time / Brake-Stride ratio” value ([4]; L-Dopa 20 mg/kg SC) was “normalized by THP; also recorded: normalized Brake Stride ratios to control levels; also recorded: normalized Brake-Stride ratios to control levels”.
With NCCc1cc(O)c(O)cc1O [6-OHDA, 6-hydroxy-dopamine] the “GDNF and ChAT transcription in the striatum” value [6] was “ipsi-lateral up-regulation of GDNF and ChAT transcription in the striatum”, the “expression of Th in the vMB” value [6] was “not affected” and the turning bias [6] was “contra lateral turning bias”. The “Shh transcription in the vMB” value [6] was “up-regulation of Shh transcription in the ipsilateral ventral midbrain”, the “Shh transcription in the vMB” value ([6]; listed as 6 OH-DA) was “ipsi-lateral up-regulation of Shh transcription in the vMB” and the “GDNF transcription in the striatum” value ([6]; wt animals) was “No up regulation of GDNF transcription was detected”. The “reduction in SVZ proliferation overall (PCNA)” value [2] was 40%, the “reduction in proliferation in the C cell compartment (PCNA)” value [2] was 50% and the “increase in the production of newly born Pax6+, TH+ periglomerular DA neurons in the olfactory bulb ipsilateral to the lesion” value [2, 10] was “threefold”. For the same molecule, the “reduction in proliferation within the SVZ” value [2, 10] was 40%.
For C[C@H]1CC[C@@]2(OC1)O[C@H]1C[C@H]3[C@@H]4CC[C@@H]5C[C@@H](O)CC[C@]5(C)[C@H]4CC[C@]3(C)[C@H]1[C@@H]2C [PYM50028], the “loss of dopaminergic neurons from the substantia nigra” value [7] is given as “attenuated the loss of dopaminergic neurons from the substantia nigra” and the “striatal GDNF” value [7] is given as “significant elevation of striatal GDNF”.
